Patent EP1379539B1, “METHODS AND MATERIALS FOR MAKING AND USING TRANSGENIC DICAMBA-DEGRADING ORGANISMS” (BOARD OF REGENTS OF THE UNIVERSITY OF NEBRASKA, priority 2001, dated 2002)
Read-outs that look alike come from different tables or passages of the source.

Experiments:
[1] = tested on: transgenic tobacco plants bearing the oxygenase gene constructs with the transit peptide; details: 0.5 lbs/acre to 5 lbs/acre tested
[2] = tested on: Transgenic plants containing the three gene construct (oxygenase, ferredoxin and reductase genes)
[3] = tested on: Transgenic tobacco plants bearing oxygenase gene constructs but lacking the transit peptide coding sequence; details: sprayed, 0.5 lbs/acre to 5 lbs/acre tested
wild type tobacco plants = details: for effect on non-transgenic plants: sprayed

With COc1c(Cl)ccc(Cl)c1C(=O)O [dicamba, 2-methoxy-3,6-dichlorobenzoic acid] the “concentration of dicamba at which sprayed plants grew and were healthy” value [1] was “up to 5 lbs/acre”, the “effect on transgenic plants” value ([2]; 0.125 Ib/acre dicamba, sprayed) was “grew and were healthy” and the “predicted resistance to dicamba” value ([2]; predicted from plants with the oxygenase construct alone) was ≥ 2.5 Ib/acre. The “dicamba treatment to which plants displayed resistance (grew and were healthy)” value [3] was “at least 2.5 lbs/acre”, the “effect on non-transgenic plants” value (wild type tobacco plants; 0.125 Ib/acre dicamba) was “reduced growth, withering and severe necrosis” and the “sensitivity of the wild type plants” value (wild type tobacco plants; 0.5 lbs/acre of dicamba, sprayed at 10-12-leaf stage with non-ionic surfactant) was 100%. For the same compound, the “effect on non-transgenic plants” value (wild type tobacco plants; same amounts of dicamba as the transgenic plants (0.5 lbs/acre to 5 lbs/acre)) was “reduced growth, withering and severe necrosis”.
